{"source": "patent US20250339409A1", "about": "“USES OF PAN BET INHIBITORS” (VYNE THERAPEUTICS INC., priority 2021, published 2025)", "key": {"[1]": {"test_system": "right knee joint", "test": "Toxicity in dogs after intra-articular injection: mortality, pathology, knee joint histopathology (Mankin score)", "format": "in vivo", "details": "dog", "source_text": "The purpose of this study was to determine the maximum tolerated dose and potential toxicity of BETi1 when administered by intra-articular injection to Beagle dogs and to determine local and systemic toxicokinetic characteristics associated with treatment of Beagle dogs with BETi1 formulations.\n16 Beagle dogs (8 males, 8 females) were assigned to four treatment groups to determine toxicity of BETi1 formulations following intra-articular injection.\nThe experimental groups are presented below: • Group 1: Control; 0 mg of BETi1/animal dose • Group 2: Low Dose; 7.5 mg of BETi1/animal dose • Group 3: Mid Dose; 75 mg of BETi1/animal dose • Group 4: High Dose; 150 mg of BETi1/animal dose […]\nSeveral features were measured in treated dogs, including viability, clinical observation, body weight, food consumption, clinical pathology (hematology, coagulation, serum chemistry, urinalysis), toxicokinetics, and pathology.\nFor all animals from the study, representative samples of organs and all gross lesions and masses from all groups were removed from fixative, trimmed, processed, embedded in paraffin, sectioned, stained with hematoxylin and eosin, and examined microscopically. […] A modified Semi-Quantitative Mankin scoring system was used to in evaluation of right knee joint histopathology, as shown in Table 48 below: […]"}, "[2]": {"test_system": "MMP-9", "test": "RHE vitiligo model: MMP-9 secretion by ELISA", "format": "cell-based, human", "details": "for reduction in secreted MMP-9: 1% treatment, vs stimulated/untreated control or vehicle; for MMP-9 (% stimulated ctl) Mean / MMP-9 (% stimulated ctl): TNF-α/IFN-γ stimulated RHE; for MMP-9 (% stimulated ctl) Mean / MMP-9 (% stimulated ctl) / Mean conc MMP-9 / Conc MMP-9: 48 h; for MMP-9 (% stimulated ctl) / Conc MMP-9: replicates N1-N3; for Mean conc MMP-9 / Conc MMP-9: culture medium of RHE, TNF-α 12 ng/ml/IFN-γ 12 ng/ml", "experimental": "[…] Three epidermis samples per condition are fixed in 4% formaldehyde solution and embedded in paraffin for further analysis (morphology analysis, melanin and melanocytes localisation/quantification). Three other epidermis samples per condition are put in a specific lysis buffer for total RNA extraction.\nAt the end of the treatments, culture media is collected (from 3 epidermis per condition), aliquoted and stored at −20° C. until use in ELISA assays. The quantity of MMP-9 secreted by the epidermis at the end of the treatments is analysed using the human MMP-9 Quantikine ELISA kit (Bio-Techne; DMP900). The secretion of E-cadherin in culture media is measured using to human E-cadherin Quantikine ELISA kit (Bio-Techne; DCADE0) dedicated for the measurement of natural human E-cadherin in culture supernates, serum, plasma, urine, and saliva.\nThe ELISAs are performed following the instructions of the supplier. The quantities of MMP-9 and E-cadherin are determined by comparisons with standard curves performed with recombinant human MMP-9 or E-cadherin provided in the kits.\nQuantification of secretion of MMP-9 and E-cadherin by ELISA from collected culture medium was conducted in accordance with Method E. The results, shown in FIG. 5A and FIG. 5B are based on Tables 23 and 24 respectively and presented in percentage of release in comparison to the stimulated control. A statistical analysis (student t-test) was performed to compare the effects of the treatments with the formulations to the vehicle (with $: 0.05>p>0.01; $$: 0.01>p>0.001; and $$$: p<0.001). The same analysis was performed to compare the effects of the vehicle and of the unstimulated control to the stimulated control (with *: 0.05>p>0.01; **: 0.01>p>0.001; and ***: p<0.001). The analysis was performed from three replicates per condition (n=3). The mean of the three values and the standard deviation are presented on the histograms in FIG. 5A and FIG. 5B. As shown in Table 21 and FIG. 5A and consistent with the results of Part A, MMP-9 secretion was increased following the stimulation with the cytokines, which validates the assay."}}, "note": "Values joined by “and” are separate entries in the source; they are usually repeats but may differ in a detail not shown here. Equal entries are not always repeated.", "data": [{"smiles": "Cn1cc(-c2cccc(O)c2Oc2ccccc2)c2cc[nH]c2c1=O", "note": "[BETi1]", "values": [{"measurement": "tolerability, synovium findings", "setting": "[1]; intra-articular 7.5, 75, 150 mg, 28 days", "result": "overall well-tolerated"}, {"measurement": "total Mankin score, right knee joint", "setting": "[1]; intra-articular, 14-points scale", "result": "total Mankin score of zero except for one animal at 75 mg dose"}, {"measurement": "reduction in secreted MMP-9", "setting": "[2]", "result": "~95", "unit": "%"}, {"measurement": "reduction in secreted MMP-9", "setting": "[2]; listed as BETi1 1%", "result": "> 95", "unit": "%"}, {"measurement": "reduction in secreted MMP-9", "setting": "[2]; listed as BETi 1%", "result": "about 94.7%"}, {"measurement": "MMP-9 (% stimulated ctl) Mean", "setting": "[2]; BETi1 0.001%", "result": 137, "unit": "%"}, {"measurement": "MMP-9 (% stimulated ctl)", "setting": "[2]; BETi1 0.001%", "result": "140% and 138% and 134%"}, {"measurement": "Mean conc MMP-9", "setting": "[2]; BETi1 0.001%", "result": 24.1, "unit": "ng/mL"}, {"measurement": "Conc MMP-9", "setting": "[2]; BETi1 0.001%", "result": "24.5 ng/mL and 24.1 ng/mL and 23.5 ng/mL"}, {"measurement": "MMP-9 (% stimulated ctl) Mean", "setting": "[2]; BETi1 0.01%", "result": 113, "unit": "%"}, {"measurement": "MMP-9 (% stimulated ctl)", "setting": "[2]; BETi1 0.01%", "result": "113% and 104% and 122%"}, {"measurement": "Mean conc MMP-9", "setting": "[2]; BETi1 0.01%", "result": 19.8, "unit": "ng/mL"}, {"measurement": "Conc MMP-9", "setting": "[2]; BETi1 0.01%", "result": "19.9 ng/mL and 18.2 ng/mL and 21.4 ng/mL"}, {"measurement": "MMP-9 (% stimulated ctl) Mean", "setting": "[2]; BETi1 0.1%", "result": 10, "unit": "%"}, {"measurement": "MMP-9 (% stimulated ctl)", "setting": "[2]; BETi1 0.1%", "result": "9% (2×) and 12%"}, {"measurement": "Mean conc MMP-9", "setting": "[2]; BETi1 0.1%", "result": 1.7, "unit": "ng/mL"}, {"measurement": "Conc MMP-9", "setting": "[2]; BETi1 0.1%", "result": "1.5 ng/mL and 2.0 ng/mL and 1.6 ng/mL"}, {"measurement": "MMP-9 (% stimulated ctl) Mean", "setting": "[2]; BETi1 1%", "result": 5, "unit": "%"}, {"measurement": "MMP-9 (% stimulated ctl)", "setting": "[2]; BETi1 1%", "result": "5% (2×) and 6%"}, {"measurement": "Mean conc MMP-9", "setting": "[2]; BETi1 1%", "result": 0.9, "unit": "ng/mL"}, {"measurement": "Conc MMP-9", "setting": "[2]; BETi1 1%", "result": "0.9 ng/mL and 1.1 ng/mL and 0.8 ng/mL"}]}]}
